Tests used:
[1] = method code G-GLC, from DOI: 10.1021/je00036a027
[2] = not given; remark: listed apart in the source
[3] = not given; remark: listed apart in the source
[4] = method code SF, from DOI: 10.1021/jm061062o.s001, PMID: 17326614; details: pH 7.4
[5] = not given; remark: listed apart in the source
[6] = method code SF-AS, from DOI: 10.1023/a:1016392123137, PMID: 24272811; details: pH 9.0
[7] = from Wadhwa, L.; Chandiran, S.; Sharma, P. (2004). Alkyl esters of 6-methoxy-2-naphthylacetic acid as potential prodrugs - Synthesis, physicochemical properties, chemical stability and enzymatic …; details: pH 7.4
[8] = not given; remark: listed apart in the source
[9] = method code SF-RC, from DOI: 10.1002/ps.2780410303
[10] = method code SF-AS, from DOI: 10.1135/cccc19881862
[11] = not given; remark: listed apart in the source
[12] = not given; remark: listed apart in the source
[13] = not given; remark: listed apart in the source
[14] = method code SF-HPLC, from DOI: 10.1002/ps.2780310207
[15] = not given; remark: listed apart in the source
[16] = method code SF-AS, from DOI: 10.1248/cpb.39.458, PMID: 1829027; details: pH 7.0
[17] = not given; remark: listed apart in the source
[18] = from Sparatore, F.; Grieco, C.; Silipo, C.; Vittoria, A. (1979). Use of regression analysis to correlate auxin activity with chemical physical and structural properties of benzotriazole derivatives. III. …; details: pH 5.6
[19] = method code SF, from DOI: 10.1016/j.bmc.2005.05.004, PMID: 15946850; details: pH 7.4
[20] = method code SF-AS, from PMID: 5136171
[21] = not given; remark: listed apart in the source
[22] = not given; remark: listed apart in the source
[23] = method code SF-GLC, from DOI: 10.1016/s0021-9673(01)83612-8; details: pH 13.0

Clc1c(Cl)c(Cl)c(-c2ccccc2)c(Cl)c1Cl
logP [1]: 6.3

CCNCc1ccc(C)cc1
logP: 2.38

CCC1(CC)C(=O)NC(=O)N(C(C)C)C1=O
logP [2]: 2.36

O=c1[nH]ccc2c(Nc3c(Cl)cc(C(O)C(F)F)cc3Cl)nc3ccncc3c12 (stereo unspecified)
logP [3]: 1.46

CS(=O)(=O)c1cc([N+](=O)[O-])c(C(N)=O)cc1N(CCBr)CCBr
logD [4]: 1.18

CCCCCCCNCc1ccc(C)cc1
logP: 5.12

O=S(=O)(Nc1ccccc1Cl)c1c(O)c(Cl)cc(Cl)c1Cl
logP [5]: 3.97

O=S(=O)(Nc1cc(Cl)c(Cl)cc1Cl)c1cc(Cl)cc(Cl)c1O
logP [5]: 4.32

CS(=O)(=O)CCN(CCS(C)(=O)=O)c1cc(C(N)=O)c([N+](=O)[O-])cc1[N+](=O)[O-]
logD [4]: -0.7

c1ccc(-c2cc3ccccc3cn2)nc1
logD [6]: 3.05

COc1ccc2cc(CC(=O)OCC(C)C)ccc2c1
logD [7]: 4.71

Cc1ncc2c(c1O)COC2c1ccc(Cl)cc1 (stereo unspecified)
logP [8]: 2.34

Nc1nc(-c2ccccn2)cc2ccccc12
logD [6]: 2.74

CSc1cnc(C2=NC(C)(C(C)C)C(=O)N2)c(C(=O)O)c1 (stereo unspecified)
logD ([9]; pH 2.8): 0.75

O=C(O)CCCC(=O)c1ccc(-c2ccc(-c3ccccc3)cc2)cc1
logD ([10]; pH 3.5): 3.35

CCOC1OC2OC3(C)CC(OC4OC(C(=O)O)C(O)C(O)C4O)C4C(C)CCC(C1C)C24OO3 (stereo unspecified)
logP [11]: 1.73

O=c1[nH]ccc2c(Nc3c(F)cc(F)cc3Cl)nc3ccncc3c12
logP [3]: 1.75

Cc1cccc2cc(-c3ccccn3)nc(N)c12
logD [6]: 3.05

CCC1(c2ccccc2)C(=O)NC(=O)N=C1OC(C)C (stereo unspecified)
logP [2]: 2.22

CCOC(=O)OC[C@@H]1O[C@H](n2ccc(N)nc2=O)CS1
logP [12]: -0.25

OC1(c2ccc(I)cc2)c2ccccc2C2=NCCN21 (stereo unspecified)
logP [13]: 2.2

Clc1ccc(C2(Cn3cncn3)CC2)cc1
logP [14]: 2.21

O=C(NNC(=O)c1ccc([N+](=O)[O-])cc1)c1ccc([N+](=O)[O-])cc1
logP [15]: 2.07

CC(C)(C)c1ccc(C(O)CCCN2CCC(C(O)c3ccccc3)CC2)cc1 (stereo unspecified)
logP [8]: 4.06

CCCCC(=O)OC[C@H]1O[C@@H](n2cc(F)c(=O)[nH]c2=O)C[C@@H]1OC(=O)CCCC
logD [16]: 2.72

Clc1cc(Cl)c(-c2ccccc2)c(Cl)c1
logP [1]: 5.47

O=S(=O)(Nc1ccc(O)cc1)c1cc(Cl)cc(Cl)c1Cl
logP [5]: 4.18

O=c1[nH]ccc2c(Nc3c(Cl)cc(C4=NNCC4)cc3Cl)nc3ccncc3c12
logP [3]: 1.43

CC1(C)C2Cc3ssc(=S)c3C1C2 (stereo unspecified)
logP [17]: 3.52

OCCCCCCn1nnc2ccccc21
logD [18]: 1.71

CC(=O)OCC1OC(n2cc(F)c(=O)[nH]c2=O)CC1OC(C)=O (stereo unspecified)
logD [16]: -0.34

N#Cc1nonc1-c1ccc(OCCCc2c[nH]cn2)cc1
logD [19]: 3.04

S=c1ssc2c1CCCCCCCCCC2
logP [17]: 5.8

Cc1ccc(Cc2cnc(NCCCCc3ncc(Br)cc3C)[nH]c2=O)cn1
logP [8]: 3.19

O=S(=O)(Nc1cc(Cl)c(Cl)cc1Cl)c1c(O)c(Cl)cc(Cl)c1Cl
logP [5]: 4.36

COc1ccc2cc(CC(=O)OC(C)C)ccc2c1
logD [7]: 4

CC(C)C1(C)N=C(c2ncc(CO)cc2C(=O)O)NC1=O (stereo unspecified)
logD ([9]; pH 2.5): -0.21

OCCCCn1nc2ccccc2n1
logD [18]: 1.57

OC1(c2ccc(Br)cc2)c2ccccc2C2=NCCN21 (stereo unspecified)
logP [13]: 1.9

CCOC(=O)c1cnc2cc(OCCOC)c(OC)cc2c1O
logP [20]: 1.36

COc1ccc(COC(C(=O)O)c2ccccc2)cc1Cl (stereo unspecified)
logD ([10]; pH 3.4): 2.45

O=C(NCCN1CCOCC1)OCCCCCC1CCSS1 (stereo unspecified)
logP [21]: 2.9

OC1(c2ccc(F)cc2)c2ccccc2C2=NCCN21 (stereo unspecified)
logP [13]: 0.95

OCCCCn1nnc2ccccc21
logD [18]: 1.03

OC1(c2cccc(F)c2)c2ccccc2C2=NCCN21 (stereo unspecified)
logP [13]: 1.28

CCCCCOC(=O)OC[C@@H]1O[C@H](n2ccc(N)nc2=O)CS1
logP [12]: 1.2

OCCCCCn1nc2ccccc2n1
logD [18]: 1.93

CCOC(=O)c1cnc2cc(OCCOC(C)C)c(OCC(C)C)cc2c1O
logP [20]: 2.17

CC(C)(Cn1cncn1)c1ccc(F)cc1
logP [14]: 1.74

CC1(C)S[C@@H]2[C@H](NC(=O)Cc3ccccc3)C(=O)N2[C@H]1C(=O)O
logP [22]: 1.83

CC(C)OC(=O)OC[C@@H]1O[C@H](n2ccc(N)nc2=O)CS1
logP [12]: 0.1

OCc1nonc1-c1ccc(OCCCc2c[nH]cn2)cc1
logD [19]: 1.96

CCc1c(-c2ccccc2)ssc1=S
logP [17]: 4.31

CCC1(c2ccccc2)C(=O)N=C(OC(C)C)NC1=O (stereo unspecified)
logP [2]: 1.79

COc1cccc(OC)c1C(=O)N[C@@H]1C(=O)N2[C@@H]1SC(C)(C)[C@@H]2C(=O)O
logP [22]: 1.22

O=C(O)C(OCc1ccccc1)c1ccccc1 (stereo unspecified)
logD ([10]; pH 3.4): 2

CCCCNCc1ccc(C)cc1
logP: 3.49

CCCCCCNCc1ccc(C)cc1
logP: 4.96

Cc1ccc(C(=O)NNC(=O)c2ccccc2)cc1
logP [15]: 1.88

[O-][n+]1onc(-c2ccc(OCCCc3c[nH]cn3)cc2)c1CO
logD [19]: 1.83

CCC1(CC)C(=O)N=C(OC(C)C)NC1=O
logP [2]: 1.44

O=C(CCCN1CCC(C(O)(c2ccccc2)c2ccccc2)CC1)c1ccccc1
logP [8]: 4.42

CCCCCOC(=O)NCCN1CCOCC1
logP [21]: 2.8

Clc1cc(Cl)c(-c2ccccc2)cc1Cl
logP [1]: 5.51

CCOC(=O)Cc1ccc2cc(OC)ccc2c1
logD [7]: 3.04

S=c1ssc(Cc2ccccc2)c1-c1ccccc1
logP [17]: 4.29

CCCCCCCC(=O)OCC1OC(n2cc(F)c(=O)[nH]c2=O)CC1OC(=O)CCCCCCC (stereo unspecified)
logD [16]: 6.05

CCCc1cnc(C2=NC(C)(C(C)C)C(=O)N2)c(C(=O)O)c1 (stereo unspecified)
logD ([9]; pH 2.8): 1.27

CCOC(=O)c1cnc2cc(OCC(C)C)c(OCC(C)C)cc2c1O
logP [20]: 2.18

CC(O)c1cc(Cl)c(Nc2nc3ccncc3c3c(=O)[nH]ccc23)c(Cl)c1 (stereo unspecified)
logP [3]: 1.2

CCCCCC(=O)OCC1OC(n2cc(F)c(=O)[nH]c2=O)CC1OC(=O)CCCCC (stereo unspecified)
logD [16]: 4.25

CS(=O)(=O)CCN(CCI)c1cc(C(N)=O)c([N+](=O)[O-])cc1[N+](=O)[O-]
logD [4]: 0.74

CC1(C)SC2C(NC(O)c3ccccc3)C(=O)N2C1C(=O)O (stereo unspecified)
logP [22]: 1.4

O=C(NN(C(=O)c1ccc([N+](=O)[O-])cc1)c1ccccc1)c1ccc([N+](=O)[O-])cc1
logP [15]: 4.18

CC1(C)SC2C(NC(=O)CCOc3ccccc3)C(=O)N2C1C(=O)O (stereo unspecified)
logP [22]: 2.28

Fc1ccc(C2(Cn3cncn3)CCC2)cc1
logP [14]: 1.93

CN[C@H](C)[C@@H](OC)c1ccccc1 (relative stereo)
logD [23]: 1.87

CCCOC(=O)OC[C@@H]1O[C@H](n2ccc(N)nc2=O)CS1
logP [12]: 0.22

CC(C)C1(C)N=C(c2ncc(S(C)(=O)=O)cc2C(=O)O)NC1=O (stereo unspecified)
logD ([9]; pH 2.0): -0.05

CC(N)CC1CCCCCCC1 (stereo unspecified)
logD [23]: 3.7

Clc1ccc(C2(Cn3cncn3)CCC2)cc1
logP [14]: 2.13

N#Cc1c(-c2ccc(OCCCc3c[nH]cn3)cc2)no[n+]1[O-]
logD [19]: 2.99

CC1CN(CCNC(=O)OCCCCCC2CCSS2)CC(C)O1 (stereo unspecified)
logP [21]: 4.2

Clc1cccc(Cl)c1-c1ccccc1
logP [1]: 4.93

O=C(CCCCC1CCSS1)NCCN1CCOCC1 (stereo unspecified)
logP [21]: 1.8

O=C(O)CCC(=O)c1ccc(-c2ccc(-c3ccccc3)cc2)cc1
logD ([10]; pH 3.5): 3.2

CCCOC(=O)Cc1ccc2cc(OC)ccc2c1
logD [7]: 4.14

CS(=O)(=O)CCN(CCCl)c1cc(C(N)=O)c([N+](=O)[O-])cc1[N+](=O)[O-]
logD [4]: 0.42

Cc1cccc(-c2cc3ccccc3c(N)n2)n1
logD [6]: 3.18

COc1ccc(C(=O)NNC(=O)c2ccccc2)cc1
logP [15]: 1.6

CCOC(=O)c1cnc2cc(OCc3ccccc3)c(OCCOC)cc2c1O
logP [20]: 1.95
